Values joined by “and” are separate entries in the source; they are usually repeats but may differ in a detail not shown here. Equal values may be shown once. “Also recorded” adds a separate entry of the source.

Consider eight compounds from patent US20090275529A1, “METHOD FOR IMPROVING CARDIOVASCULAR RISK PROFILE OF COX INHIBITORS” (priority 2008, published 2009).

Series [1] concerns cholesterol 27-OHase protein in THP-1 cells. Kind of series: 27-OHase protein by Western immunoblot in THP-1 monocytes. The class given is cell-based, human. The following applies: NS-398 50 μM. As to the method:
Western Blots: Total cell lysates were prepared for Western immunoblotting using RIPA lysis buffer (98% PBS, 1% Igepal CA-630, 0.5% sodium deoxycholate, 0.1% sodium dodecyl sulfate [SDS]). 100 μl of RIPA lysis buffer and 10 μl of protease inhibitor cocktail (Sigma) were added to the cell pellet from each condition and incubated on ice for 35 minutes with vortexing every 5 min. Supernatants were collected after centrifuging at 10,000 g at 4° C. for 10 minutes using an Eppendorf 5415C centrifuge. The quantity of protein in each supernatant was measured by absorption at 560 nm using a Hitachi U2010 spectrophotometer.
Total cell lysate was used for Western blots. Protein samples ([…]) were boiled for 5 minutes, loaded onto a 10% polyacrylamide gel, electrophoresed for 1.5 hr at 100V then transferred to a nitrocellulose membrane in a semi-dry transblot apparatus for 1 hour at 100V. […] The five washes in TTBS were repeated, then the immunoreactive protein was detected using ECL western blotting detection reagent (Amersham Biosciences, Cat No RPN2106) and film development in SRX-101A (Konica Minolta).
As a control, on the same transferred membrane, beta-actin was detected using mouse anti-beta-actin (diluted in 1:1000, from abCam, product Code: ab6276) and ECL sheep anti-mouse-IgG Horseradish peroxidase-linked species-specific whole antibody (diluted in 1:2000, from Amersham Biosciences, product Code NA931) and all other similar steps as above.
Total cell lysate was isolated for Western immunoblotting using RIPA lysis buffer (98% PBS, 1% Igepal CA-630, 0.5% sodium deoxycholate, 0.1% SDS). […] The quantity of protein in each supernatant was measured by absorption at 560 nm using a Hitachi U2010 spectrophotometer.
Cultured TUP-1 monocytic cells were untreated or exposed to NS-398 (50 μM, 18 hr) then untreated or exposed to increasing doses of MTX for 24 hr. Total cell protein was isolated and 27-OHase detected with specific rabbit polyclonal anti-human 27-OHase antibody. […]
(A western blot detects proteins with antibodies after separation by electrophoresis.)

Series [2] deals with 27-OHase in peripheral blood monocytes. Description: 27-OHase in healthy monocytes isolated from peripheral blood (PBMC). The following applies: MTX 5 μM, 18 h. The class given is cell-based, human. As to the method: PBMC (peripheral blood mononuclear cell) isolation: Blood from healthy donors was collected in EDTA treated tubes, pooled and kept at 4° C. The pooled blood was adjusted to a density of 1.120 g/ml with the addition of OptiPrep Density Gradient Media (Sigma) according to the manufacturer's instructions. The blood was then overlaid with a 1.074 g/ml density solution composed of complete RPMI containing 10% FBS and OptiPrep media. A layer of complete RPMI containing 10% FBS was then overlaid on top to prevent monocytes from sticking to the plastic tube. The blood was centrifuged at 750 g for 30 minutes at 4° C. After centrifugation, the monocyte interphase was collected from between the 1.074 g/ml and RPMI layer. The collected cells were diluted with 2 volumes of complete RPMI and harvested by centrifugation. The pellet was re-suspended in complete RPMI. The monocytes were counted by hemocytometer and plated at a density of 2×10^6 cells/well in a 6-well plate.
PBMC: PBMC were incubated for 18 h in RPMI with 10% FBS with and without the addition of MTX at a concentration of 5 μM. Cells were collected and RNA isolated.

In series [3] the test system is ABCA1 mRNA in THP-1 cells. Kind of series: ABCA1 mRNA by real-time PCR in THP-1 cells. The series is classed as cell-based, human. To be noted: for effect on ABCA1 message: THP-1 monocytes/macrophages. In general terms: Real-time PCR tracks product formation cycle by cycle.
The subject of series [4] is cholesterol 27-OHase mRNA in THP-1 cells. Kind of series: 27-OHase mRNA by real-time PCR (QRT-PCR) in THP-1 monocytes/macrophages. To be noted: for effect on 27-OHase message: THP-1 monocytes/macrophages; for 27-OHase mRNA, % of control: THP-1 monocytes, MTX 5 μM, 18 hr, untreated = 100%, n=3; for increase in 27-OHase message: THP-1 cells.
Protocol: THP-1 cells: When THP-1 cells had reached 10^6 cells/ml, media was aspirated and cells were rinsed twice with Dulbecco's Phosphate Buffered Saline (DPBS) without calcium and magnesium. The monocytes were then incubated for 24-48 hours in six well plates, (37° C., 5% CO2) under the following conditions: a) RPMI control; b) RPMI containing 5 mM MTX; c) RPMI containing NS-398 (50 μM); d) RPMI containing NS-398 (50 μM) and MTX (increasing doses of 0.1 μM, 0.5 μM and 5 μM); e) RPMI containing IFN-γ (500 U/ml); f) RPMI containing IFN-γ (500 U/ml) and 5 μM MTX.
TUP-1 macrophages were exposed to the following conditions: a) RPMI control; b) RPMI containing ZM-241385 (10 μM); c) RPMI containing MTX (5 μM); d) RPMI containing IFN-γ (500 U/ml); e) RPMI containing IFN-γ (500 U/ml) and 5 μM MTX; f) RPMI containing ZM-241385 (10 μM) and MTX (5 μM); g) RPMI containing IFN-γ (500 U/ml), ZM-241385 (10 μM) and MTX (5 μM); h) RPMI containing NS-398 (50 μM), ZM-241385 (10 μM) and MTX (5 μM).
Other experimental conditions of TUP-1 and PBMC included the following parameters and conditions: when THP-1 monocytes had reached 10^6 cells/ml, media was aspirated and cells were rinsed twice with Dulbecco's Phosphate Buffered Saline (DPBS) without calcium and magnesium.
RNA isolation and quantitation: RNA was isolated using 1 ml Trizol reagent per 10^6 cells and dissolved in nuclease-free water. The quantity of total RNA from each condition was measured by absorption at 260 and 280 wavelengths using quartz cuvettes by ultraviolet spectrophotometry (Hitachi U2010 spectrophotometer).
RT-PCR analysis of 27-OHase: 27-OHase and ABCA1 mRNA were quantitated by real-time PCR. cDNA was copied from 5 μg of total RNA using M-MLV reverse transcriptase primed with oligo dT. Equal amounts of cDNA were taken from each RT reaction mixture for PCR amplification using cholesterol 27-OHase-specific primers or ABCA1 specific primers as well as glyceraldehyde-3-phosphate dehydrogenase (GAPDH) control primers. The cholesterol 27-OHase-specific primers span a 311 base-pair sequence encompassing nucleotides 491-802 of the human cholesterol 27-OHase cDNA (24). ABCA1 primers yield a 234 BP amplified fragment. Real-time PCR analysis was performed using the SYBR Green PCR Reagents Kit (Applied Biosystems) with a Stratagene MX3005P QPCR System.
PCR was performed using techniques as follows. Each PCR reaction contained 2.5 μl of the 10 × fluorescent green buffer, 3 μl of 25 mM MgCl2, 2 μl dNTP mix (2500 μM dCTP, 2500 μM dGTP, 2500 μM dATP, and 5000 μM dUTP), 0.15 μl polymerase (5 U/μl; AmpliTaq Gold; Applied Biosystems), 0.25 μl uracil-N-glycosylase (1 U/μlUNG; AmpErase; Applied Biosystems), 0.5 μl of the forward and reverse primers (10 μM concentration), 4 μl cDNA, and water to a final volume of 25 μl. The thermal cycling parameters were as follows: 5 minutes at 95° C. to activate the polymerase (AmpliTaq Gold; Applied Biosystems), followed by 45 cycles of 30 seconds at 95° C. and 45 seconds at 58° C. then 45 seconds at 72° C. Each reaction was done in triplicate.
The amounts of PCR products were estimated, using software provided by the manufacturer (Stratagene). After completion of PCR cycles, the reactions were heat denatured over a 35° C. temperature gradient from 60° C. to 95° C. To correct for differences in cDNA load among samples, the target PCRs were normalized to a reference PCR involving the endogenous housekeeping genes glyceraldehyde-3-phosphate dehydrogenase (GAPDH) and β-actin. Nontemplate controls were included for each primer pair to check for significant levels of any contaminants. Fluorescence emission spectra were monitored and analyzed.
The next series concerns THP-1 macrophages. Kind of series: Foam cell formation in acetylated LDL-loaded THP-1 macrophages (oil red O). The class given is cell-based, human. As to the method: THP-1 human monocytes (1×10^6 cells/ml) in 12 well plates were treated with phorbol dibutyrate, 300 nM (Sigma) for 48 hr at 37° C. to facilitate differentiation into macrophages. The differentiated macrophages were washed three times with PBS, then incubated alone or in the presence of 10 μM NS-398 (37° C., 5% CO2, 18 hours). Cells were cholesterol-loaded with acetylated LDL (50 μg/ml) and further incubated in RPMI (37° C., 5% CO2) for 48 hours. Studies were performed in triplicate.
Immediately following incubation, media was aspirated and cells were fixed in the same 12 well plates used for incubation, with 4% paraformaldehyde in water, for 2-4 minutes. Cells were stained with 0.2% Oil-Red-O in methanol for 1-3 min. Cells were observed via light microscope (Axiovert 25-Zeiss) with 100× magnification and then photographed using a Kodak DC 290 Zoom Digital Camera. The number of foam cells formed in each condition were calculated manually and presented as percentage foam cell formation.
(§1) Media was aspirated and cells were rinsed 3 times with Dulbecco's Phosphate Buffered Saline (PBS) without Ca++ and Mg++. […] THP-1 macrophages were cholesterol-loaded with 50 μg/ml acetylated LDL and incubated an additional 48 h prior to oil red O staining.
Following incubation, media was aspirated and cells were fixed with 4% paraformaldehyde in water, for 2-4 min. Cells were stained with 0.4% trypan blue for 1-3 min, washed in PBS, and then stained with 0.2% oil-Red-O in methanol for 1-3 min. Observation and photography of cells was performed respectively via light microscope (NIKON Eclipse TE300) with 40× magnification and SONY Progressive 3CCD color video camera. The number of foam cells formed in each condition were calculated manually and presented as percentage foam cell formation.

The subject of series [5] is ABCA1 protein in THP-1 cells. Kind of series: ABCA1 protein by Western blot in THP-1 cells. The following applies: 50 μM. The class given is cell-based, human. The protocol: ABCA1 Detection: For ABCA1 detection, macrophage cell lysates were electrophoresed for 1.5 hr at 100V (10% polyacrylamide gel), then transferred to a nitrocellulose membrane. The membrane was blocked for 4 hours at 4° C. in blocking solution then incubated overnight at 4° C. in a 1:200 dilution of rabbit anti-ABCA1antibody (Santa Cruz Biotechnology). The following day, the membrane was washed 5 times in TTBS for 5 mins per wash then incubated at room temperature in a 1:5000 dilution of ECL donkey anti-rabbit IgG Horseradish peroxidase-linked species-specific whole antibody. Development proceeded as described above for the 27-OHase antibody.
as §1
Western Blots: Total cell lysate protein samples (10 μg/lane) were boiled for 5 min, loaded onto a 7.5% polyacrylamide gel, electrophoresed for 1.5 hr at 100V then transferred to a nitrocellulose membrane in a semi-dry transblot apparatus for 1 hr at 100V. For ABCA1 detection, the primary antibody was a rabbit anti-human ABCA1 antibody (1:2000 dilution, Santa Cruz Biotechnology). […]

Series [6] relates to 27-OHase mRNA in Balb/C murine macrophages. Description: 27-OHase mRNA in Balb/C murine macrophages. The class given is cell-based. The following applies: 10^−5M, 3 hours, 37° C., n=3 per group. An excerpt:
A number of different highly receptor-specific agonists and antagonists of adenosine receptors have been developed that either mimic or block the effects of adenosine. […] Based on the upregulation of 27-OHase in murine cells upon exposure to CGS-21680, the same effect was established in human monocytoid cells. In THP-1 cells, ABCA1 mRNA increased in concert with 27-OHase.

For series [7] the following is noted: rats, IV dose 0.3 mg/kg; cited from earlier work.
Where [8] appears, read: acetylated LDL-treated THP-1 macrophages, MTX series, control 39.3±5.0%, n=3.
The mark [9] stands for this setting: vs NS-398 alone, NS-398 50 μM, CGS-21680 10 μM, 18 hrs.
Setting [10] is: THP-1 macrophages, acetylated LDL.

Take `CN(Cc1cnc2nc(N)nc(N)c2n1)c1ccc(C(=O)N[C@@H](CCC(=O)O)C(=O)O)cc1` [MTX, methotrexate]: in series [1], the “effect on 27-OHase protein” value is recorded as “corrected with increasing concentrations of MTX”. The “effect on 27-OHase in peripheral blood monocytes” value in series [2] was “increases 27-OHase”. Besides, in series [3], the “effect on ABCA1 message” value is recorded as “effective in blocking COX-2 inhibitor-mediated downregulation of ABCA1 message”. Further, the “effect on 27-OHase message” value in series [4] is “completely blocked NS-398-induced downregulation of 27-OHase message”. In addition, the “27-OHase mRNA, % of control” value in series [4] (NS-398 50 μM, CGS-21680 10 μM) is recorded as 113.9±6.4%.

As to `Cc1ccc(-c2cc(C(F)(F)F)nn2-c2ccc(S(N)(=O)=O)cc2)cc1` [Celecoxib, celecoxib], in the series with THP-1 macrophages (50 μM, acetylated LDL loading, control 39.1%±5.4), the foam cells is 95.0%±0.7. Moreover, the “decrease in ABCA1 protein expression vs. control” value in series [5] was 25.6%±1.3.

Take `COC(=O)N1CCC(CC#Cc2nc(N)c3ncn([C@@H]4O[C@H](C(=O)NC5CC5)[C@@H](O)[C@H]4O)c3n2)CC1` [ATL313]: the “effect on ABCA1 message” value in series [3] is “increases 27-OHase as shown in FIG. 3b and ABCA1 mRNA and protein”. In addition, the “effect on 27-OHase message” value in series [4] was “increases 27-OHase message”.

As for `CS(=O)(=O)Nc1ccc([N+](=O)[O-])cc1OC1CCCCC1` [NS-398], in series [1], the “effect on 27-OHase protein” value was 27-OHase protein expression decreased. Besides, the “ABCA1 mRNA, % of control” value in series [3] (THP-1 cells, NS-398 50 μM, CGS-21680 10 μM, 18 hrs, untreated = 100%, n=3) was 71.1±3.9% and 60.49±4.42%. In series [4], the “effect on 27-OHase message” value was “dramatically reduced cholesterol 27-OHase message”. The “27-OHase mRNA, % of control” value in series [4] (NS-398 50 μM, CGS-21680 10 μM) is 71.1±4.3% and 58.9±2.3% and 62.4±2.2%. This compound also came in with a foam cell transformation with THP-1 macrophages (THP-1 macrophages, NS-398 (10 μM, 18 hours), acetylated LDL, control 20.1±3.4%) of 42.7±6.6%. In the series on THP-1 macrophages (setting [8]), this compound displayed a foam cells of 72.7±4.9%.

As to `CCNC(=O)[C@H]1O[C@@H](n2cnc3c(N)nc(NCCc4ccc(CCC(=O)O)cc4)nc32)[C@H](O)[C@@H]1O` [CGS-21680, 2-(4-(2-carboxyethyl)phenethylamino)-5′-N-ethylcarboxamidoadenosine], the “effect on 27-OHase protein” value in series [1] is listed as “this decrease is reversed by the addition of the adenosine A2A agonist CGS-21680”. Further, the “increase in ABCA1 mRNA on addition of CGS-21680 to NS-398-treated THP-1 cells” value in series [3] (setting [9]) was 141%. For the same compound, the “increase in 27-OHase mRNA expression” value in series [6] was determined as 47±6.2%. In addition, in series [4], the “increase in 27-OHase message” value is listed as at most 1.8 fold. For the same compound, in series [4] (setting [9]), the “increase in 27-OHase mRNA on addition of CGS-21680 to NS-398-treated THP-1 cells” value came out at 184%. In addition, in series [7], the terminal half-life was 19 ± 4 min.

With `Nc1nc(OCCc2ccc(Cl)cc2)nc2c1ncn2[C@@H]1O[C@H](CO)[C@@H](O)[C@H]1O` [MRE-0094], the “increase in ABCA1 mRNA expression” value in series [3] (THP-1 cells) is 1.8 fold. In series [4], the “increase in 27-OHase message” value amounted to 2 fold.

Take “IFN-γ: recombinant human IFN-γ, atherosclerosis-promoting cytokine (R&D Systems)”: the “effect on 27-OHase message” value in series [4] was “decreasing 27-OHase and ABCA1 message and protein expression”. Besides, the “effect on foam cell formation” value in the series on THP-1 macrophages (setting [10]) was “formed foam cells more rapidly and in greater proportion than untreated control cells”. Further, the foam cells in the series with THP-1 macrophages (setting [8]) was determined as 71.0±5.0%.

For the compound `Nc1nc(NCCc2ccc(O)cc2)nc2nc(-c3ccco3)nn12` [ZM-241385], the “reversal by A2A antagonist of agonist-induced rise in 27-OHase (and ABCA1) message” value in series [4] (THP-1, ZM-241385 with ATL313 or MRE-0094) is “this is reversed by ZM-241385; also recorded: reversed the effect of MRE-0094 on both these messages”. The “effect on foam cell formation” value in the series on THP-1 macrophages (setting [10]) was “prevents MTX from decreasing NS-398-induced foam cell formation”. Besides, in the series with THP-1 macrophages (acetylated LDL-treated THP-1 macrophages, ZM-241385 then MTX), the “foam cells after preincubation with A2A antagonist prior to MTX treatment” value stood at 62.1±1.5%.
